Blank lines part the entries; values can stand above or below the substance they belong to.
Experiments:
CCR2 = biological target: T1, CCR2 (Homo sapiens, UniProt P41597); test: Conventional cell migration assay, MCP-1 dose response in THP-1 cells; type: cell-based; settings: 90 minutes, FIG. 10
T1 construct: THP-1 cells expressing cell surface CCR1 and CCR2; host or cells: THP-1 (human monocytic)
T1 sequence (P41597 1-360 isoform P41597-2): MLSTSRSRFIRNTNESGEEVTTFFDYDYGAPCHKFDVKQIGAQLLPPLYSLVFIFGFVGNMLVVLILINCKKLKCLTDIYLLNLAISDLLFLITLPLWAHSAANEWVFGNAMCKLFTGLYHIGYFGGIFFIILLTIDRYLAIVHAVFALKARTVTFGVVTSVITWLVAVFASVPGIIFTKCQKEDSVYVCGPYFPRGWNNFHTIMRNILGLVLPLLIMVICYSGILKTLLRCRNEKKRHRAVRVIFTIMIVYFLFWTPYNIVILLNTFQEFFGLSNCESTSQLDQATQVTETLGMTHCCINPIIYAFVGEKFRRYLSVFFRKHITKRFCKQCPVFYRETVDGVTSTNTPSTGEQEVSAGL
Procedure: (§1) To obtain a dose response curve for THP-1 cells expressing cell surface CCR1 and CCR2, a conventional cell migration assay was used (Bacon et al., 1988; Penfold et al., 1999). Cells were harvested by centrifugation and then resuspended in cell migration buffer (Hank's balanced salt solution (HBSS)/0.1% bovine serum albumin (BSA)) at 0.1×10^6 cells per well. The CCR1 and CCR2 ligands MIP-1α and MCP-1, respectively, were prepared in the concentration series (10 nM to 10 μM) by serial dilution in cell migration buffer. At low concentrations, MIP-1α and MCP-1 activate cell migration of CCR1 and CCR2 bearing activated cells, respectively.
(§2) MIP-1α and MCP-1 were loaded in the bottom chamber of a ChemoTx® cell migration apparatus (5 μm pore polycarbonate polyvinylpyrrolidone-coated filters (Neuroprobe; Gaithersburg, Md.); 29 μl/well) and 20 μl of cell suspension (100K cell per well) was placed in the upper chamber. The cells were incubated at 37° C. for 90 minutes. The assay was terminated by removing the cells from the upper chamber and membrane surface using a rubber scraper. The cells that migrated to the lower chamber were quantified by CyQuant assay (Molecular Probes; Eugene, Oreg.), a fluorescent dye method that measures nucleic acid content. […]

THP-1 cells [1] = test: Effect of full RAM concentration of MCP-1 on MIP-1α-induced migration; type: cell-based, human; settings: 100 nM MCP-1, THP-1 cells, FIG. 11B
Procedure: An effect of 100 nM of MCP-1 on MIP-1α was studied by comparing migration levels of THP-1 cells as activated by MIP-1α with THP-1 cell migration levels as activated by incubation with MIP-1α and 100 nM MCP-1.
(§3) 100 nM MCP-1 with MIP-1α at various concentrations were loaded in the bottom chamber of a ChemoTx® cell migration apparatus (5 μm pore polycarbonate polyvinylpyrrolidone-coated filters (Neuroprobe; Gaithersburg, Md.); 29 μl/well) and 20 μl of cell suspension (100K cell per well) was placed in the upper chamber. The cells were incubated at 37° C. for 90 minutes. The assay was terminated by removing the cells from the upper chamber and membrane surface using a rubber scraper. The cells that migrated to the lower chamber were quantified by CyQuant assay (Molecular Probes; Eugene, Oreg.), a fluorescent dye method that measures nucleic acid content.

THP-1 cells [2] = test: Effect of full RAM concentration of MIP-1α on MCP-1-induced migration; type: cell-based, human; settings: 100 nM MIP-1α, FIG. 11A
Procedure: An effect of 100 nM of MIP-1α on MCP-1 was studied by comparing migration levels of THP-1 cells as activated by MCP-1 with THP-1 cell migration levels as activated by incubation with MCP-1 and 100 nM MIP-1α.
as §3, with “nM MIP-1α with” for “nM”, “MCP-1” for “MCP-1 with MIP-1α”

CCR1 = biological target: T2, CCR1 (Homo sapiens, UniProt P32246); test: Conventional cell migration assay, MIP-1α dose response in THP-1 cells; type: cell-based; settings: 90 minutes, FIG. 10
T2 construct: THP-1 cells expressing cell surface CCR1 and CCR2; host or cells: THP-1 (human monocytic)
T2 sequence (P32246 1-355): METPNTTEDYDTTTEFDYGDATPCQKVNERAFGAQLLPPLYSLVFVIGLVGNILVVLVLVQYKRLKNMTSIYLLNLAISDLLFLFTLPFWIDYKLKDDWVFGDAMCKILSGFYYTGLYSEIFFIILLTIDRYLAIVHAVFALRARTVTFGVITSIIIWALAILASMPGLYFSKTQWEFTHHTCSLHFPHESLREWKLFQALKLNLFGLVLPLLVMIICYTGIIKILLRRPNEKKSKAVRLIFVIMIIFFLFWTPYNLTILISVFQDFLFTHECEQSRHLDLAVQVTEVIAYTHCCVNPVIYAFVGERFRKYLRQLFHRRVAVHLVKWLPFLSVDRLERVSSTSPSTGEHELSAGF
Procedure: as §1, §2

CXCR4 = biological target: T3, CXCR4 (Homo sapiens, UniProt P61073); test: Conventional cell migration assay, SDF-1α dose response (determining inhibitory concentration); type: cell-based; settings: CXCR4-bearing activated lymphocytes, 150 minutes
T3 construct: endogenous in cells
Procedure: To obtain a dose response curve for activated lymphocytes expressing cell surface CXCR4, a conventional cell migration assay was used (Bacon et al., 1988; Penfold et al., 1999). The activated lymphocytes were prepared by culturing lymphocytes in the presence of interleukin-2 (IL-2) and phytohemeagglutinin (PHA). To isolate peripheral blood lymphocytes (i.e., a thin layer of white blood cells called the buffy coat), blood samples from the Stanford blood center were centrifuged for 10 minutes at 1200 rpm leaving a concentrated fraction containing predominantly white blood cellular fraction. Next, peripheral blood mononuclear cells (PBMC) were prepared by the standard Ficoll-Pague (Amersham Biosciences) gradient centrifugation method. Following the centrifugation, PBMC were removed and resuspended in MACS (Dulbecco's Phosphate Buffered Saline, DPBS; 1% Bovine Serum Albumin, BSA) buffer. After removal of the PMBCs, the monocytes were separated by a CD14 positive selection column mounted on an AutoMac (Multenyi Biotech). […]
The CXCR4 ligand stromal-derived factor (SDF-1α) was prepared in a concentration series (0.1 nM to […]) by serial dilution in cell migration buffer. […] The cells that migrated to the lower chamber were quantified by the CyQuant assay (Molecular Probes; Eugene, Oreg.), a fluorescent dye method that measures nucleic acid content. […]

T3 sequence (P61073 whole entry): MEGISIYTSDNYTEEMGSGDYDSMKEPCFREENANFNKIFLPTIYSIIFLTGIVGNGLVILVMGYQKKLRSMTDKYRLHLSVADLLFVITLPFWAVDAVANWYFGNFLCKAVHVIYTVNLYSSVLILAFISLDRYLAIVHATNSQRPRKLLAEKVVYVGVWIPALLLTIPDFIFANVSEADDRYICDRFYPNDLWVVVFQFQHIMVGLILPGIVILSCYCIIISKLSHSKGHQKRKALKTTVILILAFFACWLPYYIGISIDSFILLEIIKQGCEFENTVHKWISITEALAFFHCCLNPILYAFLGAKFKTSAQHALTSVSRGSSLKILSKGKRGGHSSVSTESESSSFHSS

concentration determined to be completely inhibitory for cell migration (CCR2): 150 nM
Substance: MCP-1: CCR2 ligand, chemokine purchased from PeproTech
effect on MIP-1α-induced cell migration (THP-1 cells [1]): no significant effect

concentration determined to be completely inhibitory for cell migration (CCR1): 150 nM
Substance: MIP-1α: CCR1 ligand, chemokine purchased from PeproTech
effect on MCP-1-induced cell migration (THP-1 cells [2]): no significant effect

concentration determined to be completely inhibitory for cell migration (CXCR4): 1 µM
Substance: SDF-1α

Source: US7468253B2, “Method for multiple chemokine receptor screening for antagonists using RAM assay” (Chemocentryx, Inc., priority 2001, dated 2008)
